Test results: PMC4930906 (The Korean Journal of Physiology & Pharmacology : Official …, 2016)

Experiments:
[1] = molecular target: T1, TRESK (Mus musculus, UniProt Q6VV64); assay: whole-cell patch clamp, HEK293, voltage ramp, current at +[…] mV; format: cell-based
T1 sequence (Q6VV64 1-394): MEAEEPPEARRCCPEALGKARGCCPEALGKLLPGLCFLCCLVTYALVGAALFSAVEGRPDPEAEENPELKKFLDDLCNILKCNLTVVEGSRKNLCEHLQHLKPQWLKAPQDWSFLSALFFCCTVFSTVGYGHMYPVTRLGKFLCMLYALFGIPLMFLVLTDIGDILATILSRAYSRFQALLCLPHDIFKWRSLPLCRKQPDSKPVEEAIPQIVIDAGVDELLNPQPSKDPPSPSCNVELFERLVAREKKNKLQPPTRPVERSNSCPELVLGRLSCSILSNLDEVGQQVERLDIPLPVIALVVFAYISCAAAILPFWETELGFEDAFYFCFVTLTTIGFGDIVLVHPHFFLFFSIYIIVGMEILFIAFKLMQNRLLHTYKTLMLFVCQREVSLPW

[2] = molecular target: T2, TREK-2 (Rattus norvegicus, UniProt Q9JIS4); assay: as above; format: cell-based
T2 sequence (Q9JIS4 1-538): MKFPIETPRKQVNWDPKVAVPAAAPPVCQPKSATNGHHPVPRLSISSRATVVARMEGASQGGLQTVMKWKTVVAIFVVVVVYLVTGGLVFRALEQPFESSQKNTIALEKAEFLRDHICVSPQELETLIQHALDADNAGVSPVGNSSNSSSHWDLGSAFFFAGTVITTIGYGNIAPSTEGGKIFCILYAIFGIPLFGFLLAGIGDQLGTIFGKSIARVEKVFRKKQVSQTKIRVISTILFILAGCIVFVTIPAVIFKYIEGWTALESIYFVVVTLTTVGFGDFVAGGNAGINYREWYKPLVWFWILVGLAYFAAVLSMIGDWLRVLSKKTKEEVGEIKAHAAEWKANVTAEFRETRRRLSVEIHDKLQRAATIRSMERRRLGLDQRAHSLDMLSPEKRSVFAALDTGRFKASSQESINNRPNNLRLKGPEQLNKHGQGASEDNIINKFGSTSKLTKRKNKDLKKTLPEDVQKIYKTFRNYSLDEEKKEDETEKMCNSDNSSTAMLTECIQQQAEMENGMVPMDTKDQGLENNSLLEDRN

Compound	IC50 [1] [µM]	IC50 [2] [µM]
CC(=O)Nc1ccc(O)cc1 [acetaminophen]	220 ± 26	–
CN(C)CCC=C1c2ccccc2CCc2ccccc21 [amitriptyline]	26 ± 5	16 ± 4
CC(NC(C)(C)C)C(=O)c1cccc(Cl)c1 (stereo not shown) [bupropion]	160 ± 17	–
CN(C)CCCC1(c2ccc(F)cc2)OCc2cc(C#N)ccc21 (stereo not shown) [citalopram]	168 ± 11	110 ± 9
CN(C)CCC[C@@]1(c2ccc(F)cc2)OCc2cc(C#N)ccc21 [escitalopram]	49 ± 7	102 ± 9
CC(C)Cc1ccc(C(C)C(=O)O)cc1 (stereo not shown) [ibuprofen]	889 ± 10	–
COc1ccc2cc(CCC(C)=O)ccc2c1 [nabumetone]	557 ± 35	–
